Consider three compounds from ChEMBL document CHEMBL1121941, “Two clonidine-like compounds with substituents at the 2-, 3-, and 6-position of the phenyl ring possessing pronounced hypotensive potencies” (J Med Chem, 1982).

SMILES strings stand for the structures.

The test system of one series is Rattus norvegicus. The series is described as follows: Hypotensive activity measured as the 20% decrease in mean arterial blood pressure in anesthetized normotensive rat. The series is classed as functional.
A short description of series [1]: Partition coefficient (logP). The series is classed as physicochemical. The following applies: octanol/water.
The subject of another series is Felis catus. The series is described as follows: Hypotensive activity measured as the 20% decrease in mean arterial blood pressure in anesthetized cat. It counts as functional.

In general, logP refers to a log measure of how a compound divides between an organic and an aqueous phase. High values mean a more lipophilic compound, low ones a more hydrophilic compound.

Turning to `Clc1ccc(Cl)c(NC2=NCCN2)c1Cl`, the results for the pC20 with Rattus norvegicus and in the series on Felis catus were 8.39 and 9.17, respectively. For the same compound, the log partition coefficient (logP) in series [1] is 1.71.
Turning to `Clc1cccc(Cl)c1NC1=NCCN1` [CLONIDINE], the pC20 amounted to 7.96 in the series with Rattus norvegicus and 8.72 in the series on Felis catus. For the same compound, in series [1], the log partition coefficient (logP) turned out to be 0.91.
The corresponding values for `Cc1ccc(Cl)c(Cl)c1NC1=NCCN1` are 7.79, 7.92 and 1.06.
